Assays:
[1] = Body weight in MC38 model (Example 10); type: in vivo; conditions: for Mean Body Weight: in g (unit assumed)
Description: After tumor cell inoculation, the animals were checked daily for morbidity and mortality. During routine monitoring, the animals were checked for any effects of tumor growth and treatments on behavior such as mobility, food and water consumption, body weight gain/loss (Body weights were measured three times a week after randomization), eye/hair matting and any other abnormalities. Mortality and observed clinical signs were recorded for individual animals in detail.
Tumor volumes were measured three times a week after randomization in two dimensions using a caliper, and the volume was expressed in mm^3 using the formula: V=(L×W×W)/2, where V is tumor volume, L is tumor length (the longest tumor dimension) and W is tumor width (the longest tumor dimension perpendicular to L). Dosing as well as tumor and body weight measurements were conducted in a Laminar Flow Cabinet. The body weights and tumor volumes were measured by using StudyDirector™ software (version 3.1.399.19).
After one measurement of body weight loss (BWL)>20% or BWL>15% for consecutive 72 hours, the individual mouse was sacrificed. BWL was calculated based on the BW of mouse on the first day of treatment. After one measurement of BWL>15%, dosing holidays were given to the individual mouse with BWL>15% which was housed in a separate cage alone with daily monitoring for 72 hours, while other mice in the same group would receive dosing as scheduled., treatment was resumed when the BWL has recovered to BWL<10%. Supplemental gel was supplied to all the animals in the study on day 5 to day 15 upon sponsor's request.
The body weight of all animals was monitored throughout the study and animals were euthanized if they lost over 15% of their body weight relative to the weight at the first day of treatment for 3 consecutive days, or lose over 20% of their body weight relative to the weight at the first day of treatment.

[2] = Intravenous and oral dosing pharmacokinetic screen, plasma concentration by LC/MS/MS; parameters: species or system C57BL/6 mice; conditions: male, C57BL/6, mouse, in vivo
Description: Tucaresol, Compound B02, Compound C01, Compound C02-1, and Compound C02 were dosed once, by IV bolus (3 mg/kg in 20% hydroxyprophyl-13-cyclodextrin with 1 eq NaOH) or PO (10 mg/kg in 1% carboxymethylcellulose/0.1% tween-80 in water), to non-fasted male C57BL/6 mice. Animals were bled from the dorsal metatarsal vein (from the heart for 24 hour time point) for K2-EDTA plasma 0.083 (for IV only), 0.25, 0.5, 1, 2, 4, 8, and 24 hours after dosing. The plasma concentration of the dosed tucaresol or compound were measured by LC/MS/MS (I-CMS-8060 instrument for MS). PK parameters were then calculated with WinNonlin 6.1. For Compounds C01, CO2 and CO2-1, stability in C57BL/6 K2EDTA plasma was also evaluated at 22° C. over 1 hour by utilizing LC.

[3] = iv, 3 mg/kg, Compound C02 concentration
[4] = iv, 3 mg/kg, Compound C02 concentration, Mean

With `O=Cc1c(OCc2ccc(C(=O)O)cc2)cccc1OC1O[C@H](CO)[C@@H](O)[C@H](O)[C@H]1O` (stereo partly drawn) [Compound C02] the “weight loss (in words)” value ([1]; 20 mg/kg, PO, QDx5 (day 1-5), as a monotherapy or in combination with anti-PD1) was “not associated with weight loss”, the “Mean Body Weight” value ([1]; Day 1, Group 02: C02 20 mg/kg p.o. QD × 5 (day 1~5) + Rat IgG2a 10 mg/kg i.p. BIW) was 18.9 ± 0.2 and the “Mean Body Weight” value ([1]; Day 1, Group 04: C02 20 mg/kg p.o. QD × 5 (day 1~5) in combination with PD-1 (RMP 1-14) 10 mg/kg i.p. BIW × 6 doses) was 19.2 ± 0.2. The “Mean Body Weight” value ([1]; Day 4, Group 02: C02 20 mg/kg p.o. QD × 5 (day 1~5) + Rat IgG2a 10 mg/kg i.p. BIW) was 19.2 ± 0.2, the “Mean Body Weight” value ([1]; Day 4, Group 04: C02 20 mg/kg p.o. QD × 5 (day 1~5) in combination with PD-1 (RMP 1-14) 10 mg/kg i.p. BIW × 6 doses) was 19.3 ± 0.2 and the “Mean Body Weight” value ([1]; Day 8, Group 02: C02 20 mg/kg p.o. QD × 5 (day 1~5) + Rat IgG2a 10 mg/kg i.p. BIW) was 19.6 ± 0.2. For the same compound, the “Mean Body Weight” value ([1]; Day 8, Group 04: C02 20 mg/kg p.o. QD × 5 (day 1~5) in combination with PD-1 (RMP 1-14) 10 mg/kg i.p. BIW × 6 doses) was 19.9 ± 0.1, the “Mean Body Weight” value ([1]; Day 10, Group 02: C02 20 mg/kg p.o. QD × 5 (day 1~5) + Rat IgG2a 10 mg/kg i.p. BIW) was 20 ± 0.3 and the “Mean Body Weight” value ([1]; Day 10, Group 04: C02 20 mg/kg p.o. QD × 5 (day 1~5) in combination with PD-1 (RMP 1-14) 10 mg/kg i.p. BIW × 6 doses) was 20.3 ± 0.2. The “Mean Body Weight” value ([1]; Day 12, Group 02: C02 20 mg/kg p.o. QD × 5 (day 1~5) + Rat IgG2a 10 mg/kg i.p. BIW) was 20.6 ± 0.4, the “Mean Body Weight” value ([1]; Day 12, Group 04: C02 20 mg/kg p.o. QD × 5 (day 1~5) in combination with PD-1 (RMP 1-14) 10 mg/kg i.p. BIW × 6 doses) was 21 ± 0.2 and the “Mean Body Weight” value ([1]; Day 15, Group 02: C02 20 mg/kg p.o. QD × 5 (day 1~5) + Rat IgG2a 10 mg/kg i.p. BIW) was 22.3 ± 0.5. For the same compound, the “Mean Body Weight” value ([1]; Day 15, Group 04: C02 20 mg/kg p.o. QD × 5 (day 1~5) in combination with PD-1 (RMP 1-14) 10 mg/kg i.p. BIW × 6 doses) was 21.9 ± 0.4, the AUClast/D [2] was 947 ng·h/mL per mg/kg and the T1/2 [2] was 3.94 h. For the same compound, the Tmax [2] was 0.500 h, the “Tucaresol concentration, Mean” value ([2]; iv, 3 mg/kg, 0.083 h) was 28.3 ng/mL and the “Tucaresol concentration, Mean” value ([2]; iv, 3 mg/kg, 0.25 h) was 128 ng/mL. The “Tucaresol concentration, Mean” value ([2]; iv, 3 mg/kg, 0.5 h) was 165 ng/mL, the “Tucaresol concentration, Mean” value ([2]; iv, 3 mg/kg, 1 h) was 123 ng/mL and the “Tucaresol concentration, Mean” value ([2]; iv, 3 mg/kg, 2 h) was 114 ng/mL. The “Tucaresol concentration, Mean” value ([2]; iv, 3 mg/kg, 4 h) was 76.1 ng/mL, the “Tucaresol concentration, Mean” value ([2]; iv, 3 mg/kg, 8 h) was 37.1 ng/mL and the concentration at 0.083 h [2, 3] was 1830 ng/mL. It also gave a concentration at 0.25 h [2, 3] of 537 ng/mL, a concentration at 0.083 h [2, 4] of 2390 ng/mL and a concentration at 0.25 h [2, 4] of 578 ng/mL. For the same compound, the concentration at 0.5 h [2, 4] was 220 ng/mL, the “Tucaresol concentration, Mean” value ([2]; po, 10 mg/kg, 0.25 h) was 972 ng/mL and the “Tucaresol concentration, Mean” value ([2]; po, 10 mg/kg, 0.5 h) was 1398 ng/mL. The “Tucaresol concentration, Mean” value ([2]; po, 10 mg/kg, 1 h) was 915 ng/mL, the “Tucaresol concentration, Mean” value ([2]; po, 10 mg/kg, 2 h) was 532 ng/mL and the “Tucaresol concentration, Mean” value ([2]; po, 10 mg/kg, 4 h) was 390 ng/mL. The “Tucaresol concentration, Mean” value ([2]; po, 10 mg/kg, 8 h) was 241 ng/mL, the “Tucaresol concentration, Mean” value ([2]; po, 10 mg/kg, 24 h) was 12.3 ng/mL and the concentration at 0.5 h ([2]; po, 10 mg/kg, C02 concentration) was 59.1 ng/mL.

— US20220387365A1, “TUCARESOL DERIVATIVES AND USES THEREOF” (BeyondSpring Pharmaceuticals, Inc., priority 2019, published 2022)
